Consider 33 compounds from ChEMBL document CHEMBL2163248, “Classification of inhibitors of hepatic organic anion transporting polypeptides (OATPs): influence of protein expression on drug-drug interactions” (J Med Chem, 2012).

The target in data set [1] is T1, Solute carrier organic anion transporter family member 1B1 (Homo sapiens, UniProt Q9Y6L6).
T1 sequence (Q9Y6L6 whole entry): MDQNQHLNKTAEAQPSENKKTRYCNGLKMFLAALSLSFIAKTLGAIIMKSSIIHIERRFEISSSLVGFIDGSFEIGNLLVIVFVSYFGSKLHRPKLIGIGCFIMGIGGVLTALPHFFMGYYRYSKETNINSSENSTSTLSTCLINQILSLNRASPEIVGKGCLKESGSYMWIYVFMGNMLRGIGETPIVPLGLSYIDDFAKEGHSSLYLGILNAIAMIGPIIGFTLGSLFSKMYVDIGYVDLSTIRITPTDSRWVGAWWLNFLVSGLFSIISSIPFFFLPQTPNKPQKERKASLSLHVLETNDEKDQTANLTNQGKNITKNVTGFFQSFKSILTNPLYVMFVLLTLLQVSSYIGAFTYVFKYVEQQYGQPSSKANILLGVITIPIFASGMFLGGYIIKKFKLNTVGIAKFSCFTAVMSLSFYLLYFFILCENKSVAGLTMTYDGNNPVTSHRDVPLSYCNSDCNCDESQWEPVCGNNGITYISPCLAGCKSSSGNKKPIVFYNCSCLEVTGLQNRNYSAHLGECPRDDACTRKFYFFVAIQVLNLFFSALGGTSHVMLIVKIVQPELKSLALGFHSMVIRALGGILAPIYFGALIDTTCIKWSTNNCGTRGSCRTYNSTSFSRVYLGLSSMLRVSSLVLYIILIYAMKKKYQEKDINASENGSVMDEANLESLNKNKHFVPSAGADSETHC
Briefly: Inhibition of human liver OATP1B1 expressed in HEK293 Flp-In cells assessed as reduction in E17-betaG uptake at 20 uM by scintillation counting. The note with it: hek293, 20 µM.

Data set [2] has as its target T2, Solute carrier organic anion transporter family member 1B3 (Homo sapiens, UniProt Q9NPD5).
T2 sequence (Q9NPD5 whole entry): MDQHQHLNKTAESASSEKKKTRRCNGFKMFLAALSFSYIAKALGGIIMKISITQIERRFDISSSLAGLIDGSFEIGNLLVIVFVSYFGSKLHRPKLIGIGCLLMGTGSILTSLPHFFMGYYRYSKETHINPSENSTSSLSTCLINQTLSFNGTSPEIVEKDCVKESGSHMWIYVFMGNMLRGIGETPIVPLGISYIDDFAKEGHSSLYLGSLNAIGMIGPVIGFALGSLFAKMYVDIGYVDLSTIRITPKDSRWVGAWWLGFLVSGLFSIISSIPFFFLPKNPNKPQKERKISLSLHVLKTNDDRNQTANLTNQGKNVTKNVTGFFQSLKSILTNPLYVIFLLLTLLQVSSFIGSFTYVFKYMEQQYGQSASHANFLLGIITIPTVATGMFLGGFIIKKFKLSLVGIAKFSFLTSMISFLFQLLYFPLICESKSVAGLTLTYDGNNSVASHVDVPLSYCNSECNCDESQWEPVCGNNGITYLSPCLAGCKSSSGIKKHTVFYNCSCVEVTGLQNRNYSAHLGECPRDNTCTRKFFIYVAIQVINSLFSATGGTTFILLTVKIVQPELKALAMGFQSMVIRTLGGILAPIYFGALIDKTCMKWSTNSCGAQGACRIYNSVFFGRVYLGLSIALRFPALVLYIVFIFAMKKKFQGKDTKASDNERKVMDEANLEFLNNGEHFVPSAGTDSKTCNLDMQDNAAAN
Briefly: Inhibition of human liver OATP1B3 expressed in HEK293 Flp-In cells assessed as reduction in [3H]E17-betaG uptake at 20 uM incubated for 5 mins by scintillation counting. The note with it: hek293, 5 min.

For data set [3], the target named is T3, Solute carrier organic anion transporter family member 2B1 (Homo sapiens, UniProt O94956).
T3 sequence (O94956 whole entry): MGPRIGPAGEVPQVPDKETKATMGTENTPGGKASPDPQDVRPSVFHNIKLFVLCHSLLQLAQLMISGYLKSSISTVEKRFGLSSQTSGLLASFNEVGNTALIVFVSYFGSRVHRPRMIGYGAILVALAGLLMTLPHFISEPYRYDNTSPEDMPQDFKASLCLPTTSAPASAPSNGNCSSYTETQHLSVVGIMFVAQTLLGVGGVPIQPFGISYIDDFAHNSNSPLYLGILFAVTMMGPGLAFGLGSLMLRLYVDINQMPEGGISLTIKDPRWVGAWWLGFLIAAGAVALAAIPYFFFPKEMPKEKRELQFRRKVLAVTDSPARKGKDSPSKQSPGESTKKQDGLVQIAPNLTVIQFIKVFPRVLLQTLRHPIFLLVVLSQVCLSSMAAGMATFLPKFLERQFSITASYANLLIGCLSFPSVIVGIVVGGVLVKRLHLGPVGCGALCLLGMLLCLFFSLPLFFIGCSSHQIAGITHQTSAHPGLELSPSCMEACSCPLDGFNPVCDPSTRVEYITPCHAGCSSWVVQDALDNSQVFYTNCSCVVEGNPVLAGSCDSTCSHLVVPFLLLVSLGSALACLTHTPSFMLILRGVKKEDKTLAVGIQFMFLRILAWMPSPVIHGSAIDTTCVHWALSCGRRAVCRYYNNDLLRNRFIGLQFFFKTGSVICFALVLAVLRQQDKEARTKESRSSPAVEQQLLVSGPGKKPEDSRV
In words: Inhibition of human liver OATP2B1 expressed in HEK293 Flp-In cells assessed as reduction in [3H]E3S uptake at 20 uM incubated for 5 mins by scintillation counting. The note with it: hek293, 5 min.

Each structure is given as a SMILES string.

With `CCOc1nc2cccc(C(=O)O)c2n1Cc1ccc(-c2ccccc2-c2nnn[nH]2)cc1`, the figures for the INH in data set [1], in data set [2] and in data set [3] were 52.1%, 28.6% and 28.4%, respectively.

For `CCCc1nc2c(C)cc(-c3nc4ccccc4n3C)cc2n1Cc1ccc(-c2ccccc2C(=O)O)cc1`, the INH in data set [1] is 109.4%; in data set [2], 91.5%; in data set [3], 94.9%.

Turning to `CCCCC(=O)N(Cc1ccc(-c2ccccc2-c2nnn[nH]2)cc1)[C@H](C(=O)O)C(C)C`, the figures for the INH in data set [1], in data set [2] and in data set [3] were 62.2%, 33.7% and 12.3%, respectively.

`CC(C)(C)NC(=O)[C@@H]1C[C@@H]2CCCC[C@@H]2CN1C[C@@H](O)[C@H](Cc1ccccc1)NC(=O)[C@H](CC(N)=O)NC(=O)c1ccc2ccccc2n1`: in data set [2], the INH is 6.6%.

In the case of `CC(C)CN(C[C@@H](O)[C@H](Cc1ccccc1)NC(=O)O[C@H]1CCOC1)S(=O)(=O)c1ccc(N)cc1`, the INH in data set [1] is on record as 79.3%; in data set [2], 16.3%; in data set [3], -3.4%.

As to `CN1CCC[C@@H]1Cc1c[nH]c2ccc(CCS(=O)(=O)c3ccccc3)cc12`, the results for the INH in data set [1], in data set [2] and in data set [3] were 31.7%, 2.8% and 0.4%, respectively.

Turning to `CCCc1nn(C)c2c(=O)[nH]c(-c3cc(S(=O)(=O)N4CCN(C)CC4)ccc3OCC)nc12`, the INH in data set [1] is listed as 22.2%; in data set [2], 30.8%; in data set [3], 45.9%.

Regarding `CCC[C@@]1(CCc2ccccc2)CC(O)=C([C@H](CC)c2cccc(NS(=O)(=O)c3ccc(C(F)(F)F)cn3)c2)C(=O)O1`, the INH is recorded as 89.5% in data set [1], 109% in data set [2] and 99% in data set [3].

As to `C=C[C@H]1C[N+]2(C)CC[C@H]1C[C@@H]2[C@@H](O)c1ccnc2ccc(OC)cc12`, the INH is given as -6.1% in data set [1], 21% in data set [2] and -10.3% in data set [3].

On to `COc1cc2c(cc1OC)CN(CCc1ccc(NC(=O)c3cccc4c(=O)c5cccc(OC)c5[nH]c34)cc1)CC2`, for which the INH in data set [1] turned out to be 94.4%; in data set [2], 37.4%; in data set [3], 67.2%.

Consider `COc1ccc2c3c([nH]c2c1)[C@H](CC(C)C)N1C(=O)[C@H](CCC(=O)OC(C)(C)C)NC(=O)[C@@H]1C3`, for which the INH worked out at 59.3% in data set [1], 24.2% in data set [2] and 78.8% in data set [3].

For `Cc1ccc(N(CC(=O)O)CC(=O)O)c(OCCOc2cc(-c3c4cc(Cl)c(=O)cc-4oc4cc(O)c(Cl)cc34)ccc2N(CC(=O)O)CC(=O)O)c1`, in data set [2], the INH was found to be 88.5%.

In the case of `CC(C)(C)NC(=O)[C@@H]1CN(Cc2cccnc2)CCN1C[C@@H](O)C[C@@H](Cc1ccccc1)C(=O)N[C@H]1c2ccccc2C[C@H]1O.O`, the INH in data set [1] stood at 71.9%; in data set [2], 18.1%; in data set [3] it was 17.8%.

For `CCOC(=O)[C@H](CCc1ccccc1)N[C@@H](C)C(=O)N1CCC[C@H]1C(=O)O`, the INH in data set [1] was -7.5%; in data set [2], 4.1%; in data set [3], 19.7%.

For `Cc1c(O)cccc1C(=O)N[C@@H](CSc1ccccc1)[C@H](O)CN1C[C@H]2CCCC[C@H]2C[C@H]1C(=O)NC(C)(C)C`, the figures for the INH in data set [1], in data set [2] and in data set [3] were 71.3%, 59.3% and 50%, respectively.

`COc1ccc(CCN(C)CCCC(C#N)(c2ccc(OC)c(OC)c2)C(C)C)cc1OC` (configuration not stated): the results for the INH in data set [2] and in data set [3] were -9% and -62.6%, respectively.

On to `C[C@H]1O[C@H](O[C@H]2[C@H](O)[C@@H](O)[C@@H](O[C@H]3[C@H](O)[C@@H](O)C(O)O[C@@H]3CO)O[C@@H]2CO)[C@H](O)[C@@H](O)[C@@H]1N[C@H]1C=C(CO)[C@@H](O)[C@H](O)[C@H]1O` (some centres not stated) [ACARBOSE], for which the INH was found to be 14.9% in data set [1], 17.7% in data set [2] and 0.1% in data set [3].

As to `CNCCCN1c2ccccc2CCc2ccccc21` [DESIPRAMINE], the values for the INH in data set [2] and in data set [3] were 3.2% and -4.4%, respectively.

`CN(CCOc1ccc(NS(C)(=O)=O)cc1)CCc1ccc(NS(C)(=O)=O)cc1` [DOFETILIDE]: the INH in data set [1] came out at 1%; in data set [2] it was 19.9%.

For the compound `Nc1nc(=O)n([C@@H]2CS[C@H](CO)O2)cc1F` [EMTRICITABINE], the INH in data set [1] was 6.4%; in data set [2], 17.1%.

For the compound `COc1cc([C@@H]2c3cc4c(cc3[C@@H](O[C@@H]3O[C@@H]5CO[C@@H](C)O[C@H]5[C@H](O)[C@H]3O)[C@H]3COC(=O)[C@H]23)OCO4)cc(OC)c1O` [ETOPOSIDE], in data set [3], the INH is recorded as 6.8%.

Consider `CC(C)n1c(/C=C/C(O)CC(O)CC(=O)O)c(-c2ccc(F)cc2)c2ccccc21` (configuration not stated) [FLUVASTATIN], for which the INH in data set [2] amounted to 76%.

Take `COc1ccc(Cl)cc1C(=O)NCCc1ccc(S(=O)(=O)NC(=O)NC2CCCCC2)cc1` [GLYBURIDE]: the INH was 49.3% in data set [2] and 77.4% in data set [3].

`O=C1CN(/N=C/c2ccc([N+](=O)[O-])o2)C(=O)N1` [NITROFURANTOIN]: the results for the INH in data set [2] and in data set [3] were -1.5% and 23.1%, respectively.

On to `CCCCC1C(=O)N(c2ccccc2)N(c2ccccc2)C1=O` [PHENYLBUTAZONE], for which the INH in data set [2] is recorded as 17%.

Turning to `CCCN(CCC)S(=O)(=O)c1ccc(C(=O)O)cc1` [PROBENECID], the INH stood at 35.2% in data set [1] and 22% in data set [2].

As for `C=C[C@H]1C[N@@]2CC[C@H]1C[C@@H]2[C@@H](O)c1ccnc2ccc(OC)cc12` [QUINIDINE], the INH in data set [1] is reported as 43.3%.

In the case of `C=C[C@H]1C[N@@]2CC[C@H]1C[C@H]2[C@H](O)c1ccnc2ccc(OC)cc12` [QUININE], in data set [1], the INH worked out at 54%.

As for `COC(=O)[C@H]1[C@H]2C[C@@H]3c4[nH]c5cc(OC)ccc5c4CCN3C[C@H]2C[C@@H](OC(=O)c2cc(OC)c(OC)c(OC)c2)[C@@H]1OC` [RESERPINE], the figures for the INH in data set [1] and in data set [3] were 67.2% and 72.3%, respectively.

With `CCC(C)(C)C(=O)O[C@H]1C[C@@H](C)C=C2C=C[C@H](C)[C@H](CC[C@@H]3C[C@@H](O)CC(=O)O3)[C@H]21` [SIMVASTATIN], the values for the INH in data set [2] and in data set [3] were 29.3% and 47.4%, respectively.

Consider `Nc1ccc(S(=O)(=O)Nc2ccnn2-c2ccccc2)cc1` [SULFAPHENAZOLE], for which the values for the INH in data set [2] and in data set [3] were 0.7% and 17.1%, respectively.

Consider `CC/C(=C(\c1ccccc1)c1ccc(OCCN(C)C)cc1)c1ccccc1` [TAMOXIFEN], for which the figures for the INH in data set [2] and in data set [3] were 28.5% and 11%, respectively.

Turning to `C[C@]12CC[C@H]3[C@@H](CCC4=CC(=O)CC[C@@]43C)[C@@H]1CC[C@@H]2O` [TESTOSTERONE], the INH in data set [3] is -175.1%.
